According to ChEMBL document CHEMBL1201862, “PubChem BioAssay data set” (2004):
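Grown in 96-well plates, cells were treated for 48 hours with each compound at five concentrations. Insufficient inhibition: endpoint recorded as highest concentration tested. Abbreviation: GI50, concentration required for 50% inhibition of growth.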 Calls of active or inactive are those of the source. No stated cut-off is given here; in the data, active = GI50 up to about 1.1 µM and inactive = higher.

How the values were obtained:
Experiment in all cases: NCI-60 cell line screen, 48 h
[1] = test system: A498
[2] = test system: A549
[3] = test system: BT-549
[4] = test system: CCRF-CEM
[5] = test system: COLO 205
[6] = test system: HCC 2998
[7] = test system: HOP-62
[8] = test system: HOP-92
[9] = test system: IGROV-1
[10] = test system: LOX IMVI
[11] = test system: M19-MEL
[12] = test system: NCI-H226
[13] = test system: NCI-H460
[14] = test system: OVCAR-5
[15] = test system: RXF 393
[16] = test system: SF-268
[17] = test system: SNB-75
[18] = test system: SR
[19] = test system: T47D
[20] = test system: TK-10

Measured: GI50

Brc1ccccc1/C=N\C12CC3CC(CC(C3)C1)C2
inactive: [1] > 100 µM | [2] > 100 µM | [3] > 100 µM | [4] 4.54 µM | [5] > 100 µM | [6] > 100 µM | [7] > 81.8 µM | [8] 84.7 µM | [9] > 100 µM | [10] 19.9 µM | [11] > 76.6 µM | [12] > 100 µM | [13] > 100 µM | [14] > 100 µM | [15] 97.9 µM | [16] 99.1 µM | [17] 38.2 µM | [18] 1.15 µM | [19] > 100 µM | [20] > 100 µM
